One compound from patent US5691381A, “Hydroxamic and carbocyclic acids as metalloprotease inhibitors” (The DuPont Merck Pharmaceutical Company, priority 1996, dated 1997) can be followed below.

The assay relates to cartilage degradation (proteoglycan content in the synovial fluid). The experiment in a line: Acute Cartilage Degradation Rat Model. The format is in vivo. As to conditions: rats, after compound administration. An excerpt:
An in vivo model of acute cartilage degradation in rats has been characterized as a method to determine the proteoglycan content in the synovial fluid after the induction of cartilage degradation.

Consider `COc1ccc2c(c1)c(CC(=O)O)c(C)n2C(=O)c1ccc(Cl)cc1` [Indomethacin], for which the “inhibition of cartilage degradation, as measured by increased proteoglycan content in the synovial fluid” value is “inactive”.
